{"source": "the supplement of paper PMC11208160", "data": [{"assay": "recombinant barcode read abundance after kanamycin selection (control-corrected) (log10(CPM+1)); higher = more efficient recombination; sequences stand for … in AGTGCAGAGAAAATCGGCCAGTTTTCTCTGCCTGCAGTCCGCATGCCGT…ATTTATGCAGCGGACTGCCTTTCTCCCAAAGTGATAAACCGGACAGTATCATGGACCGGTTTTCCCGGTAATCCGTATTTGCAAGGTTGGTTTCACT; site = the 11-nt target", "summary_of_the_method": "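Reported as log10(CPM+1), each value stands for recombination efficiency. That efficiency is the averaged, control-corrected counts per million of barcodes found at recombinant junctions. Cells from a pooled E. coli library pairing targets with IS621 bridge RNA target-binding loops were plated twice on chloramphenicol/ampicillin LB agar (control) and twice on chloramphenicol/ampicillin/kanamycin with 0.1 mM IPTG.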", "values": [{"sequence": "GGGAGCCCTTGGGTTCTAACCTGTTGCTGTG [GGGAGCCCTCA_LTGcore_CT_RTGcore_CA] (site GGGAGCCCTCA) (LTG core: CT, RTG core: CA)", "recombinant barcode read abundance (log10)": 0.589}, {"sequence": "GGGAGCCTTTGGGTTCTAACCTGTTGCTGAG [GGGAGCCCTCA_LTGcore_TT_RTGcore_CT] (site GGGAGCCCTCA) (LTG core: TT, RTG core: CT)", "recombinant barcode read abundance (log10)": 0.364}, {"sequence": "GGGCGGAAATGGGTTCTAACCTGTTGCGGAG [GGGCGGACTCC_LTGcore_AA_RTGcore_CT] (site GGGCGGACTCC) (LTG core: AA, RTG core: CT)", "recombinant barcode read abundance (log10)": 0.131}, {"sequence": "GGGCGGACATGGGTTCTAACCTGTTGCGGAG [GGGCGGACTCC_LTGcore_CA_RTGcore_CT] (site GGGCGGACTCC) (LTG core: CA, RTG core: CT)", "recombinant barcode read abundance (log10)": 2.27}, {"sequence": "GGGCGGACGTGGGTTCTAACCTGTTGCGGAG [GGGCGGACTCC_LTGcore_CG_RTGcore_CT] (site GGGCGGACTCC) (LTG core: CG, RTG core: CT)", "recombinant barcode read abundance (log10)": 1.66}, {"sequence": "GGGCGGACTTGGGTTCTAACCTGTTGCGGGC [GGGCGGACTCC_LTGcore_CT_RTGcore_GC] (site GGGCGGACTCC) (LTG core: CT, RTG core: GC)", "recombinant barcode read abundance (log10)": 0.131}, {"sequence": "GGGCGGACTTGGGTTCTAACCTGTTGCGGGT [GGGCGGACTCC_LTGcore_CT_RTGcore_AC] (site GGGCGGACTCC) (LTG core: CT, RTG core: AC)", "recombinant barcode read abundance (log10)": 0.273}, {"sequence": "GGGCGGAGTTGGGTTCTAACCTGTTGCGGAG [GGGCGGACTCC_LTGcore_GT_RTGcore_CT] (site GGGCGGACTCC) (LTG core: GT, RTG core: CT)", "recombinant barcode read abundance (log10)": 0.389}, {"sequence": "GGGCGGATCTGGGTTCTAACCTGTTGCGGGA [GGGCGGACTCC_LTGcore_TC_RTGcore_TC] (site GGGCGGACTCC) (LTG core: TC, RTG core: TC)", "recombinant barcode read abundance (log10)": 0.265}, {"sequence": "GGGCGTGAGTGGGTTCTAACCTGTTGCCTAG [GGGCGTGCTAG_LTGcore_AG_RTGcore_CT] (site GGGCGTGCTAG) (LTG core: AG, RTG core: CT)", "recombinant barcode read abundance (log10)": 0.154}, {"sequence": "GGGCGTGATTGGGTTCTAACCTGTTGCCTAT [GGGCGTGCTAG_LTGcore_AT_RTGcore_AT] (site GGGCGTGCTAG) (LTG core: AT, RTG core: AT)", "recombinant barcode read abundance (log10)": 0.0806}, {"sequence": "GGGCGTGCTTGGGTTCTAACCTGTTGCCTCA [GGGCGTGCTAG_LTGcore_CT_RTGcore_TG] (site GGGCGTGCTAG) (LTG core: CT, RTG core: TG)", "recombinant barcode read abundance (log10)": 1.06}, {"sequence": "GGGCGTGCTTGGGTTCTAACCTGTTGCCTGG [GGGCGTGCTAG_LTGcore_CT_RTGcore_CC] (site GGGCGTGCTAG) (LTG core: CT, RTG core: CC)", "recombinant barcode read abundance (log10)": 0.301}, {"sequence": "GGGCGTGCTTGGGTTCTAACCTGTTGCCTTG [GGGCGTGCTAG_LTGcore_CT_RTGcore_CA] (site GGGCGTGCTAG) (LTG core: CT, RTG core: CA)", "recombinant barcode read abundance (log10)": 0.0774}, {"sequence": "GGGCGTGGATGGGTTCTAACCTGTTGCCTTC [GGGCGTGCTAG_LTGcore_GA_RTGcore_GA] (site GGGCGTGCTAG) (LTG core: GA, RTG core: GA)", "recombinant barcode read abundance (log10)": 0.0142}, {"sequence": "GGGCGTGGCTGGGTTCTAACCTGTTGCCTGC [GGGCGTGCTAG_LTGcore_GC_RTGcore_GC] (site GGGCGTGCTAG) (LTG core: GC, RTG core: GC)", "recombinant barcode read abundance (log10)": 0}, {"sequence": "GGGCGTGGGTGGGTTCTAACCTGTTGCCTAG [GGGCGTGCTAG_LTGcore_GG_RTGcore_CT] (site GGGCGTGCTAG) (LTG core: GG, RTG core: CT)", "recombinant barcode read abundance (log10)": 0.188}, {"sequence": "GGGCGTGGTTGGGTTCTAACCTGTTGCCTAG [GGGCGTGCTAG_LTGcore_GT_RTGcore_CT] (site GGGCGTGCTAG) (LTG core: GT, RTG core: CT)", "recombinant barcode read abundance (log10)": 0.0791}, {"sequence": "GGGCGTGTCTGGGTTCTAACCTGTTGCCTAG [GGGCGTGCTAG_LTGcore_TC_RTGcore_CT] (site GGGCGTGCTAG) (LTG core: TC, RTG core: CT)", "recombinant barcode read abundance (log10)": 0.241}, {"sequence": "GGGCGTGTTTGGGTTCTAACCTGTTGCCTAA [GGGCGTGCTAG_LTGcore_TT_RTGcore_TT] (site GGGCGTGCTAG) (LTG core: TT, RTG core: TT)", "recombinant barcode read abundance (log10)": 0.0616}, {"sequence": "GGTGCCCAATGGGTTCTAACCTGTTGCCGTT [GGTGCCCCTCG_LTGcore_AA_RTGcore_AA] (site GGTGCCCCTCG) (LTG core: AA, RTG core: AA)", "recombinant barcode read abundance (log10)": 0.404}, {"sequence": "GGTGCCCATTGGGTTCTAACCTGTTGCCGAT [GGTGCCCCTCG_LTGcore_AT_RTGcore_AT] (site GGTGCCCCTCG) (LTG core: AT, RTG core: AT)", "recombinant barcode read abundance (log10)": 0.0482}, {"sequence": "GGTGCCCCCTGGGTTCTAACCTGTTGCCGAG [GGTGCCCCTCG_LTGcore_CC_RTGcore_CT] (site GGTGCCCCTCG) (LTG core: CC, RTG core: CT)", "recombinant barcode read abundance (log10)": 0.15}, {"sequence": "GGTGCCCCCTGGGTTCTAACCTGTTGCCGGG [GGTGCCCCTCG_LTGcore_CC_RTGcore_CC] (site GGTGCCCCTCG) (LTG core: CC, RTG core: CC)", "recombinant barcode read abundance (log10)": 0.387}, {"sequence": "GGTGCCCCGTGGGTTCTAACCTGTTGCCGAG [GGTGCCCCTCG_LTGcore_CG_RTGcore_CT] (site GGTGCCCCTCG) (LTG core: CG, RTG core: CT)", "recombinant barcode read abundance (log10)": 0.0559}, {"sequence": "GGTGCCCCGTGGGTTCTAACCTGTTGCCGCG [GGTGCCCCTCG_LTGcore_CG_RTGcore_CG] (site GGTGCCCCTCG) (LTG core: CG, RTG core: CG)", "recombinant barcode read abundance (log10)": 0.329}, {"sequence": "GGTGCCCCTTGGGTTCTAACCTGTTGCCGGA [GGTGCCCCTCG_LTGcore_CT_RTGcore_TC] (site GGTGCCCCTCG) (LTG core: CT, RTG core: TC)", "recombinant barcode read abundance (log10)": 0.0539}, {"sequence": "GGTGCCCCTTGGGTTCTAACCTGTTGCCGGG [GGTGCCCCTCG_LTGcore_CT_RTGcore_CC] (site GGTGCCCCTCG) (LTG core: CT, RTG core: CC)", "recombinant barcode read abundance (log10)": 0.295}, {"sequence": "GGTGCCCCTTGGGTTCTAACCTGTTGCCGTG [GGTGCCCCTCG_LTGcore_CT_RTGcore_CA] (site GGTGCCCCTCG) (LTG core: CT, RTG core: CA)", "recombinant barcode read abundance (log10)": 0.126}, {"sequence": "GGTGCCCGCTGGGTTCTAACCTGTTGCCGGC [GGTGCCCCTCG_LTGcore_GC_RTGcore_GC] (site GGTGCCCCTCG) (LTG core: GC, RTG core: GC)", "recombinant barcode read abundance (log10)": 0.148}, {"sequence": "GGTGCCCTATGGGTTCTAACCTGTTGCCGTA [GGTGCCCCTCG_LTGcore_TA_RTGcore_TA] (site GGTGCCCCTCG) (LTG core: TA, RTG core: TA)", "recombinant barcode read abundance (log10)": 0.298}, {"sequence": "GGTGCCCTGTGGGTTCTAACCTGTTGCCGAG [GGTGCCCCTCG_LTGcore_TG_RTGcore_CT] (site GGTGCCCCTCG) (LTG core: TG, RTG core: CT)", "recombinant barcode read abundance (log10)": 0.108}, {"sequence": "GTCGCCCAATGGGTTCTAACCTGTTGCTATT [GTCGCCCCTTA_LTGcore_AA_RTGcore_AA] (site GTCGCCCCTTA) (LTG core: AA, RTG core: AA)", "recombinant barcode read abundance (log10)": 0.305}, {"sequence": "GTCGCCCCGTGGGTTCTAACCTGTTGCTACG [GTCGCCCCTTA_LTGcore_CG_RTGcore_CG] (site GTCGCCCCTTA) (LTG core: CG, RTG core: CG)", "recombinant barcode read abundance (log10)": 0.316}, {"sequence": "GTCGCCCCTTGGGTTCTAACCTGTTGCTAAC [GTCGCCCCTTA_LTGcore_CT_RTGcore_GT] (site GTCGCCCCTTA) (LTG core: CT, RTG core: GT)", "recombinant barcode read abundance (log10)": 0.102}, {"sequence": "GTCGCCCCTTGGGTTCTAACCTGTTGCTAAG [GTCGCCCCTTA_LTGcore_CT_RTGcore_CT] (site GTCGCCCCTTA) (LTG core: CT, RTG core: CT)", "recombinant barcode read abundance (log10)": 0.234}, {"sequence": "GTCGCCCCTTGGGTTCTAACCTGTTGCTATA [GTCGCCCCTTA_LTGcore_CT_RTGcore_TA] (site GTCGCCCCTTA) (LTG core: CT, RTG core: TA)", "recombinant barcode read abundance (log10)": 0.0812}, {"sequence": "GTCGCCCCTTGGGTTCTAACCTGTTGCTATG [GTCGCCCCTTA_LTGcore_CT_RTGcore_CA] (site GTCGCCCCTTA) (LTG core: CT, RTG core: CA)", "recombinant barcode read abundance (log10)": 0.725}, {"sequence": "GTCGCCCCTTGGGTTCTAACCTGTTGCTATT [GTCGCCCCTTA_LTGcore_CT_RTGcore_AA] (site GTCGCCCCTTA) (LTG core: CT, RTG core: AA)", "recombinant barcode read abundance (log10)": 0.214}, {"sequence": "GTCGCCCGGTGGGTTCTAACCTGTTGCTAAG [GTCGCCCCTTA_LTGcore_GG_RTGcore_CT] (site GTCGCCCCTTA) (LTG core: GG, RTG core: CT)", "recombinant barcode read abundance (log10)": 0.0246}, {"sequence": "GTCGCCCGTTGGGTTCTAACCTGTTGCTAAC [GTCGCCCCTTA_LTGcore_GT_RTGcore_GT] (site GTCGCCCCTTA) (LTG core: GT, RTG core: GT)", "recombinant barcode read abundance (log10)": 0.146}, {"sequence": "GTCGCCCTATGGGTTCTAACCTGTTGCTATA [GTCGCCCCTTA_LTGcore_TA_RTGcore_TA] (site GTCGCCCCTTA) (LTG core: TA, RTG core: TA)", "recombinant barcode read abundance (log10)": 0.394}, {"sequence": "GTCGCCCTTTGGGTTCTAACCTGTTGCTAAA [GTCGCCCCTTA_LTGcore_TT_RTGcore_TT] (site GTCGCCCCTTA) (LTG core: TT, RTG core: TT)", "recombinant barcode read abundance (log10)": 0.0974}]}]}
